Experimental data reported in patent US20140248358A1, “Therapeutic Nanoparticles Comprising a Therapeutic Agent and Methods of Making and Using Same” (BIND Therapeutics, Inc., priority 2012, published 2014).
Values after ≈ are worked out from the molar mass of the structure shown. Structures can show the parent of a compound that is named as a salt. Where two headings read alike, the source gives them in different places.

Columns and labels:
[1] = cited from earlier work
[2] = hydrophobic acid; cited from earlier work
[3] = Stability of dasatinib in release buffer at 37° C.
[4] = Solubility of dasatinib in solvents, quantified using HPLC; format: physicochemical; settings: for solubility: organic solvent or mixture, read-out: Dasatinib solubility (mg/mL, by HPLC)
Text: The solubility of dasatinib in benzyl alcohol, ethyl acetate, and mixtures of oleic acid and benzyl alcohol were quantified using HPLC.

[5] = protonatable nitrogen-containing therapeutic agent

| SMILES | pKa ([1]; hydrophobic acid) | log P [2] | also measured |
| --- | --- | --- | --- |
| CCCCCCCC/C=C\CCCCCCCC(=O)OC[C@H](COP(=O)(O)O)OC(=O)CCCCCCC/C=C\CCCCCCCC [dioleoyl phosphatidic acid] | ~2 | – | – |
| C=C1CC[C@@H](OS(=O)(=O)O)C/C1=C/C=C1\CCC[C@]2(C)[C@@H]([C@H](C)CCCC(C)C)CC[C@@H]12 [Vitamin D3-sulfate] | −1.5 | – | – |
| O=C(O)c1ccc2ccccc2c1O [1-hydroxy-2-naphthoic acid] | 2-3 | 2.97 | – |
| O=S(=O)(O)c1ccc2ccccc2c1 [naphthalene-2-sulfonic acid] | −1.8 | 2.1 | – |
| C[C@H](CCC(=O)O)[C@H]1CC[C@H]2[C@@H]3CC[C@@H]4C[C@H](O)CC[C@]4(C)[C@H]3C[C@H](O)[C@]12C [deoxycholic acid] | 4.65 | 3.79 | – |
| CCCCCCCC/C=C\CCCCCCCC(=O)O [oleic acid] | 4-5 | 6.78 | – |
| CCN(CC)CCNC(=O)c1c(C)[nH]c(/C=C2\C(=O)Nc3ccc(F)cc32)c1C [sunitinib, reference compound] | – | – | pKa [1, 5]: 7.07 |
| CCCCCCCCCCCCc1ccc(S(=O)(=O)O)cc1 [dodecylbenzenesulfonic acid] | −1.8 | 6.6 | – |
| O=C(O)c1cc2ccccc2c(Cc2c(O)c(C(=O)O)cc3ccccc23)c1O [pamoic acid] | 2.4 | – | – |
| Cc1ccc(NC(=O)c2ccc(CN3CCN(C)CC3)cc2)cc1Nc1nccc(-c2cccnc2)n1 [imatinib, reference compound] | – | – | pKa [1, 5]: 8.38 |
| CCCCCCCCCCCCOS(=O)(=O)O [dodecylsulfuric acid] | −0.09 | 4.5 | – |
| CC(C)CCC[C@@H](C)[C@H]1CC[C@H]2[C@@H]3CC=C4C[C@@H](OS(=O)(=O)O)CC[C@]4(C)[C@H]3CC[C@]12C [cholesteryl sulfate] | −1.4 | – | – |
| O=S(=O)(O)c1cccc2c(S(=O)(=O)O)cccc12 [naphthalene-1,5-disulfonic acid] | −2 | 1.3 | – |
| CC[C@]1(O)C[C@H]2CN(CCc3c([nH]c4ccccc34)[C@@](C(=O)OC)(c3cc4c(cc3OC)N(C=O)[C@H]3[C@@](O)(C(=O)OC)[C@H](OC(C)=O)[C@]5(CC)C=CCN6CC[C@]43[C@@H]65)C2)C1 [vincristine, reference compound] | – | – | pKa [1, 5]: 7.08 |
| Cc1nc(Nc2ncc(C(=O)Nc3c(C)cccc3Cl)s2)cc(N2CCN(CCO)CC2)n1 [dasatinib] | – | – | pKa [1, 5]: 7.07; stability in release buffer [3]: degraded after 24 hours; solubility ([4]; 3% oleic acid in benzyl alcohol, 3% Oleic Acid in BA): 16.8 mg/mL (≈ 34.5 mM); solubility ([4]; 6% oleic acid in benzyl alcohol, 6% Oleic Acid in BA): 25.2 mg/mL (≈ 51.6 mM); solubility ([4]; 9% oleic acid in benzyl alcohol, 9% Oleic Acid in BA): 29.8 mg/mL (≈ 61.1 mM); improvement of solubility of dasatinib ([4]; benzyl alcohol doped with oleic acid vs benzyl alcohol): 2-3 fold; solubility ([4]; solvent BA (benzyl alcohol)): 9.45 mg/mL (≈ 19.4 mM); solubility ([4]; solvent EA (ethyl acetate)): 0.32 mg/mL (≈ 0.656 mM) |
